Laboratory results as given in patent US11903932B2, “Use of dihydroberberine or its derivatives to enhance muscle function” (NANJING NUTRABUILDING BIO-TECH CO., LTD., priority 2021, dated 2024).

Columns and labels:
Assay type in all cases: in vivo, Sprague Dawley rats
[1] = system: soleus muscles; assay: HE staining of soleus, morphological changes of the skeletal muscle; details: HFD rats, DHB supplementation groups, especially group 3 (200 mg/kg)
Procedure: (§1) Male Sprague Dawley rats aged 6-8 weeks were housed under a 12/12 h light/dark cycle at 22° C. and given free access to water and high-fat diet (HFD, 60% kcal from fat) for 12 weeks. After the 12 weeks, all rats were randomly divided into 3 groups of 8 animals. They were supplemented with or without DHB according to the following: • (1) non-supplement group (Con HFD only, Group 1); • (2) DHB supplement group (DHB+HFD, 100 mg/kg, Group 2); • (3) DHB supplement group (DHB+HFD, 200 mg/kg, Group 3).
(§2) Before the rats were sacrificed, half the rats in each group were injected with 0.75 IU/kg body weight insulin (i.p.) to activate glucose uptake and assess the insulin resistance in the skeletal muscle. Fifteen minutes later, all the rats were anesthetized with chloral hydrate; the soleus muscles were fixed in paraformaldehyde, and the gastrocnemius muscles were frozen immediately in liquid nitrogen and stored at −80° C. for protein-related experiments.
To evaluate the morphological changes of the skeletal muscle, HE staining of soleus was conducted. Hematoxylin-eosin (HE) staining: Soleus muscles were fixed in paraformaldehyde overnight, dehydrated in an ascending graded ethanol series, equilibrated with xylene, embedded in paraffin and sectioned into 5- to 10-μm slices. Then, the samples were dewaxed with xylene and a descending graded ethanol series. […]

[2] = system: ATP; assay: ATP determination in serum and skeletal muscle (ELISA); details: HFD rats
Procedure: Male Sprague Dawley rats aged 6-8 weeks were housed under a 12/12 h light/dark cycle at 22° C. and given free access to water and high-fat diet (HFD, 60% kcal from fat) for 12 weeks. After the 12 weeks, all rats were randomly divided into 3 groups of 8 animals. They were supplemented with or without DHB according to the following: • (1) non-supplement group (Con HFD only, Group 1); • (2) DHB supplement group (DHB+HFD, 100 mg/kg, Group 2); • (3) DHB supplement group (DHB+HFD, 200 mg/kg, Group 3). Based on the results of decreased fiber number and insulin resistance, the mitochondrial function in skeletal muscle might be also impaired. ATP and ROS levels in serum and skeletal muscle, which represented mitochondrial function, were further determined. ATP determination: The ATP concentration in the gastrocnemius muscle was measured using ELISA according to the manufacturer's instructions. Before the ELISA was tested, the gastrocnemius muscle lysates were first measured with a BCA protein assay kit, and the total protein concentration of each group was adjusted to the same by RIPA. The concentration of ATP was then calculated based on the absorption density determined at 450 nm.

[3] = system: ROS; assay: Reactive oxygen species (ROS) test in serum and skeletal muscle; details: HFD rats, DHB 100 and 200 mg/kg
Procedure: Male Sprague Dawley rats aged 6-8 weeks were housed under a 12/12 h light/dark cycle at 22° C. and given free access to water and high-fat diet (HFD, 60% kcal from fat) for 12 weeks. After the 12 weeks, all rats were randomly divided into 3 groups of 8 animals. They were supplemented with or without DHB according to the following: • (1) non-supplement group (Con HFD only, Group 1); • (2) DHB supplement group (DHB+HFD, 100 mg/kg, Group 2); • (3) DHB supplement group (DHB+HFD, 200 mg/kg, Group 3). Based on the results of decreased fiber number and insulin resistance, the mitochondrial function in skeletal muscle might be also impaired. ATP and ROS levels in serum and skeletal muscle, which represented mitochondrial function, were further determined. Reactive oxygen species (ROS) test: Ten microliters of skeletal muscle or lysate or 10 μl of serum was added to 127.5 μl of reaction buffer in 96-well plates (containing 30 mM HEPES (pH 7.2), 200 mM KCl, 1 mM MgCl2, and 7.5 μl of 2,2′-azobis(2-methylpropionamidine) dihydrochloride). The same volume of ultrapure water was pipetted into the plate as a blank. The microplate was put into a fluorescence microplate reader at 35° C. 10 μl of the fluorescent probe H2DCF-DA was added to each well for a final concentration of 40 μM immediately before reading, and the level of ROS was detected at 488 and 525 nm.

[4] = system: glucose transporter type 4 (GLUT4); assay: Insulin stimulating membrane translocation of GLUT4 in skeletal muscle by western blot; details: HFD rats, DHB groups 100 and 200 mg/kg, especially higher dose; insulin 0.75 IU/kg i.p.; gastrocnemius muscle, FIG. 2
Procedure: as §1
Before the rats were sacrificed, half the rats in each group were injected with 0.75 IU/kg body weight insulin (i.p.) to activate glucose uptake and assess the insulin resistance in the skeletal muscle. […]
To assess that DHB could improve insulin resistance in the skeletal muscle, the insulin stimulating membrane translocation of glucose transporter type 4 (GLUT4) by the western blot analysis was measured and compared among the groups. […]
Western blot analysis: The concentration of protein in the gastrocnemius muscle was quantitated by piercing bicinchoninic acid (BCA), and 120 μg of total protein was electrophoresed on a 12% SDS polyacrylamide gel and electro-transferred onto Polyvinylidene difluoride (PVDF) membranes. […] The images were quantified using Image Analysis Software.

[5] = system: AMPK/SIRT1/PGC-1α; assay: Western blot of AMPK/SIRT1/PGC-1α protein expression in muscle tissue; details: HFD rats, skeletal muscle
Procedure: as §1, §2
Protein sample preparation: For total protein extraction, 100 mg of the frozen gastrocnemius muscle was homogenized in radioimmunoprecipitation assay (RIPA) buffer (containing 0.2 μg/mL PMSF and 10 μg/mL phosphatase inhibitor) for 30 min and then centrifuged at 3,500 rpm×15 min and 12,000 rpm×15 min. The supernatants were extracted for the western blot analysis.
Western blot analysis: The concentration of protein in the gastrocnemius muscle was quantitated by piercing bicinchoninic acid (BCA), and 120 μg of total protein was electrophoresed on a 12% SDS polyacrylamide gel and electro-transferred onto Polyvinylidene difluoride (PVDF) membranes. Membranes were blocked with 5% (w/v) BSA for 2 h at room temperature and then incubated with primary antibodies overnight at 4° C. with slight shaking. After being washed with TBST three times, the membranes were incubated with a secondary antibody (1:2000) at room temperature for 2 h. The protein bands were visualized by enhanced chemiluminescence with a GENE Imaging system. The images were quantified using Image Analysis Software.
Western blot was used to check the protein expression of AMPK/SIRT1/PGC-1α in the muscle tissue.

[6] = Body fat percentage by nuclear magnetic resonance body composition analyzer in high-fat diet rats; details: HFD rats, FIG. 1
Procedure: Male Sprague Dawley rats aged 6-8 weeks were housed under a 12/12 h light/dark cycle at 22° C. and given free access to water and high-fat diet (HFD, 60% kcal from fat) for 12 weeks. After the 12 weeks, all rats were randomly divided into 3 groups of 8 animals. They were supplemented with or without DHB according to the following: • (1) non-supplement group (Con HFD only, Group 1); • (2) DHB supplement group (DHB+HFD, 100 mg/kg, Group 2); • (3) DHB supplement group (DHB+HFD, 200 mg/kg, Group 3). Before supplementing DHB, the muscle content of all rats was measured by nuclear magnetic resonance body composition analyzer. And then all rats were administered DHB before each major meal once daily by gavage (i.g.) in normal saline solution for 4 months. The muscle content of all rats was tested by nuclear magnetic resonance body composition analyzer every month. […] FIG. 1 is a graph of percentage of body fat of three groups of rats (Con; DHB 100 mg/kg; DHB 200 mg/kg) every month. […] Thus, DHB supplementation could achieve the beneficial effects on weight loss and increasing muscle mass.

For `COc1ccc2c(c1OC)CN1CCc3cc4c(cc3C1=C2)OCO4` [DHB, dihydroberberine], the “number of muscle fibers compared with the control group” value ([1]; FIG. 3a) was “increased dramatically”, the “relative cross-sectional area of the muscle fibers versus control group” value ([1]; FIG. 3b) was “dropped below that of the control group” and the “production of ATP in serum relative to the control group” value ([2]; DHB 200 mg/kg, serum, FIG. 4a) was 1.6 fold. The “production of ATP in skeletal muscle relative to the control group” value ([2]; DHB 200 mg/kg, skeletal muscle, FIG. 4c) was 2.7 fold, the “production of ATP in serum” value ([2]; DHB treatment 100 and 200 mg/kg, serum, FIG. 4a) was “increased significantly” and the “production of ATP in skeletal muscle” value ([2]; DHB treatment 100 and 200 mg/kg, skeletal muscle, FIG. 4c) was “increased significantly”. For the same molecule, the “ROS level in serum” value ([3]; serum, FIG. 4b) was “inhibit increased ROS effectively”, the “ROS level in skeletal muscle” value ([3]; skeletal muscle, FIG. 4d) was “inhibit increased ROS effectively” and the “membrane translocation of GLUT4 after insulin stimulation relative to control group” value [4] was “remarkably increased”. The “total AMPK protein expression among the three groups” value ([5]; DHB 100 and 200 mg/kg vs control, GAPDH as internal reference, FIG. 4e) was “no significant difference”, the “protein expression of p-AMPK” value ([5]; DHB groups, especially group 3 (200 mg/kg), FIG. 4e) was “dramatically upregulated” and the “protein expression of SIRT1 relative to the control group” value ([5]; group 3 (DHB 200 mg/kg), FIG. 4f) was “approximately 1.9 fold”. The “protein expression of PGC-1α relative to the control group” value ([5]; group 3 (DHB 200 mg/kg), FIG. 4g) was ~2 fold, the “reduction in body fat compared to control group” value ([6]; DHB 100 and 200 mg/kg i.g. once daily for 4 months) was “greater reduction in body fat” and the “decrease of percentage of body fat versus beginning of supplementation” value ([6]; higher dose group (200 mg/kg) i.g. once daily, 4 months) was “about 52%”.
